# Values joined by “and” are separate entries in the source; they are usually repeats but may differ in a detail not shown here. Identical values can stand only once. Like-named read-outs stand apart in the source and are kept apart here.
# What was measured:
# [1] = Plasma pharmacokinetics after single and multiple oral doses (noncompartmental analysis); type: in vivo, human; conditions: for AUC / AUC(0-t) / AUC(0-inf) / Vd/F / half-life / Tmax: human, plasma; for AUC(0-t): read-out: AUClast, geometric mean (CV%); for AUC(0-inf): read-out: AUC∞, geometric mean (CV%); for Vd/F: read-out: Vz/F, geometric mean (CV%); for Tmax: po
# Protocol: In the PK lead-in period, patients received a single oral dose of sitravatinib (10–200 mg) under fasted conditions with at least 200 mL of water, followed by PK sample collection for 3–7 days, depending on emerging PK information. After the PK lead-in period, patients commenced the daily regimen planned for their cohort. Blood samples were collected pre-dose and 0.5 (for 10 mg only), 1, 2, 4, 6, 8, 12, 24, 36, 48, 72 and 168 (for 20–200 mg dose levels) h post-dose from patients following a single oral dose, and at pre-dose, 0.5, 1, 2, 4, 6, 8, 12 and 24 h post-dose following multiple oral doses for the 10–200 mg levels.
# (§1) PK samples were collected after a single dose during the PK lead-in period and following multiple oral doses during the study. Plasma PK samples were assayed for quantification of sitravatinib. The lower limit of quantification was 0.05 ng/mL. PK parameters were determined using a noncompartmental analysis approach including maximum (peak) concentration (Cmax), time to reach Cmax following drug administration (tmax), area under the plasma concentration–time curves (AUCs), apparent total clearance of the drug from plasma after oral administration, apparent volume of distribution during the terminal phase after administration and terminal elimination half-life (t1/2). PD effects were examined by analyzing VEGF-A ligand and soluble (s)-VEGF-R2 levels in patients’ plasma samples collected before and after sitravatinib administration.
# [2] = tested on: target RTKs, including AXL, MERTK, VEGF-R, KIT and MET; conditions: read-out: Biochemical half-maximal inhibitory concentration, range; against target RTKs; cited from earlier work
# VEGF-R2 = assay: Pharmacodynamic plasma markers VEGF-A and s-VEGF-R2, exposure-response analysis; type: in vivo, human
# Protocol: as §1
structure (smiles),measurement,setting,value
"COCCNCc1ccc(-c2cc3nccc(Oc4ccc(NC(=O)C5(C(=O)Nc6ccc(F)cc6)CC5)cc4F)c3s2)nc1 [sitravatinib, Sitravatinib]",AUC,"[1]; oral, 110 mg QD, Cycle 1 Day 15, read-out: AUCτ,ss, geometric mean (CV%)",2250 ng·h/mL
same,AUC,"[1]; oral, 120 mg QD, Cycle 1 Day 15, read-out: AUCτ,ss, geometric mean (CV%)",1600 ng·h/mL
same,AUC,"[1]; oral, 150 mg QD, Cycle 1 Day 15, read-out: AUCτ,ss, geometric mean (CV%)",2180 ng·h/mL
same,AUC,"[1]; oral, 200 mg QD, Cycle 1 Day 15, single patient result, read-out: AUCτ,ss",4130 ng·h/mL
same,AUC(0-t),"[1]; oral, single dose 10 mg",149 ng·h/mL
same,AUC(0-inf),"[1]; oral, single dose 10 mg",165 ng·h/mL
same,Vd/F,"[1]; oral, single dose 10 mg",3720 L
same,half-life,"[1]; oral, single dose 10 mg, read-out: t1/2, arithmetic mean (CV%) (converted)",43.6 h
same,AUC(0-t),"[1]; oral, single dose 20 mg",300 ng·h/mL
same,AUC(0-inf),"[1]; oral, single dose 20 mg",501 ng·h/mL
same,Vd/F,"[1]; oral, single dose 20 mg",2500 L
same,half-life,"[1]; oral, single dose 20 mg, read-out: t1/2, arithmetic mean (CV%) (converted)",47 h
same,AUC(0-t),"[1]; oral, single dose 40 mg",509 ng·h/mL
same,AUC(0-inf),"[1]; oral, single dose 40 mg",478 ng·h/mL
same,Vd/F,"[1]; oral, single dose 40 mg",5610 L
same,half-life,"[1]; oral, single dose 40 mg, read-out: t1/2, arithmetic mean (CV%) (converted)",46.5 h
same,AUC(0-t),"[1]; oral, single dose 80 mg",1430 ng·h/mL
same,AUC(0-inf),"[1]; oral, single dose 80 mg",1540 ng·h/mL
same,Vd/F,"[1]; oral, single dose 80 mg",3360 L
same,half-life,"[1]; oral, single dose 80 mg, read-out: t1/2, arithmetic mean (CV%) (converted)",46.2 h
same,AUC(0-t),"[1]; oral, single dose 110 mg",2030 ng·h/mL
same,AUC(0-inf),"[1]; oral, single dose 110 mg",2920 ng·h/mL
same,Vd/F,"[1]; oral, single dose 110 mg",2410 L
same,half-life,"[1]; oral, single dose 110 mg, read-out: t1/2, arithmetic mean (CV%) (converted)",44.7 h
same,AUC(0-t),"[1]; oral, single dose 120 mg",1210 ng·h/mL
same,AUC(0-inf),"[1]; oral, single dose 120 mg",1320 ng·h/mL
same,Vd/F,"[1]; oral, single dose 120 mg",6370 L
same,half-life,"[1]; oral, single dose 120 mg, read-out: t1/2, arithmetic mean (CV%) (converted)",49.3 h
same,AUC(0-t),"[1]; oral, single dose 150 mg",2940 ng·h/mL
same,AUC(0-inf),"[1]; oral, single dose 150 mg",3560 ng·h/mL
same,Vd/F,"[1]; oral, single dose 150 mg",2510 L
same,half-life,"[1]; oral, single dose 150 mg, read-out: t1/2, arithmetic mean (CV%) (converted)",42.1 h
same,AUC(0-t),"[1]; oral, single dose 200 mg",3300 ng·h/mL
same,AUC(0-inf),"[1]; oral, single dose 200 mg",4000 ng·h/mL
same,Vd/F,"[1]; oral, single dose 200 mg",3660 L
same,half-life,"[1]; oral, single dose 200 mg, read-out: t1/2, arithmetic mean (CV%) (converted)",51.5 h
same,Tmax,"[1]; multiple oral 10–150 mg QD, fasting, read-out: Median tmax,ss, range across dose levels",2 to 8.13 h
same,Tmax,"[1]; single oral 10–200 mg, fasting, read-out: Median tmax, range across dose levels",3.02 to 8.87 h
same,half-life,"[1]; single oral 10–200 mg, fasting, read-out: Arithmetic mean terminal elimination t1/2, range across dose levels",42.1 to 51.5 h
same,"AUCτ,ss accumulation ratio, range",[1]; multiple QD doses,2.13–8.34
same,"Cmax,ss accumulation ratio, range",[1]; multiple QD doses,1.82–6.89
same,Dose proportionality of exposure (Cmax and AUCs),"[1]; single and multiple doses 10–200 mg, power model",approximately dose-proportional
same,"CL/F, geometric mean (CV%)",[1]; single dose 10 mg,60.5 (58.3); 3 L/h
same,"CL/F, geometric mean (CV%)",[1]; single dose 20 mg,39.9 (63.4); 3 L/h
same,"CL/F, geometric mean (CV%)",[1]; single dose 40 mg,83.7 (194.6); 4 L/h
same,"CL/F, geometric mean (CV%)",[1]; single dose 80 mg,52.0 (104.1); 7 L/h
same,"CL/F, geometric mean (CV%)",[1]; single dose 110 mg,37.6 (61.0); 3 L/h
same,"CL/F, geometric mean (CV%)",[1]; single dose 120 mg,91.2 (109.5); 4 L/h
same,"CL/F, geometric mean (CV%)",[1]; single dose 150 mg,42.1 (63.7); 12 L/h
same,"CL/F, geometric mean (CV%)",[1]; single dose 200 mg,50.0 (126.1); 3 L/h
same,Peak to trough ratio (PTR) in plasma at steady state,[1]; steady state,1.5–2.1 fold and 1.5- to 2.1 fold
same,IC50,[2],1.5 to 20 nM
same,EC50,"VEGF-R2; Homo sapiens, plasma PD markers, drug target VEGF-R2, read-out: EC50 from exposure-response analysis",0.0309 µg/mL
same,VEGF-A percent change from baseline (increase),"VEGF-R2; plasma, after sitravatinib administration",200%

# Reference: paper PMC9395446, “First-in-human phase 1/1b study to evaluate sitravatinib in patients with advanced solid tumors” (Investigational New Drugs, 2022)
